# Data: ChEMBL document CHEMBL3877279, “Design, synthesis, in-silico and biological evaluation of novel donepezil derivatives as multi-target-directed ligands for the treatment of Alzheimer's disease” (Eur J Med Chem, 2017)
# Calls of active or inactive are those of the source. The rule behind the calls is not given here.
# Columns and labels:
# Acetylcholinesterase = Acetylcholinesterase (Electrophorus electricus, UniProt O42275); test: Inhibition of Electric eel AChE using acetylthiocholine iodide as substrate preincubated for 5 mins followed by substrate addition measured after 2 mins by Ellman's method
# Sequence of Acetylcholinesterase (O42275 whole entry): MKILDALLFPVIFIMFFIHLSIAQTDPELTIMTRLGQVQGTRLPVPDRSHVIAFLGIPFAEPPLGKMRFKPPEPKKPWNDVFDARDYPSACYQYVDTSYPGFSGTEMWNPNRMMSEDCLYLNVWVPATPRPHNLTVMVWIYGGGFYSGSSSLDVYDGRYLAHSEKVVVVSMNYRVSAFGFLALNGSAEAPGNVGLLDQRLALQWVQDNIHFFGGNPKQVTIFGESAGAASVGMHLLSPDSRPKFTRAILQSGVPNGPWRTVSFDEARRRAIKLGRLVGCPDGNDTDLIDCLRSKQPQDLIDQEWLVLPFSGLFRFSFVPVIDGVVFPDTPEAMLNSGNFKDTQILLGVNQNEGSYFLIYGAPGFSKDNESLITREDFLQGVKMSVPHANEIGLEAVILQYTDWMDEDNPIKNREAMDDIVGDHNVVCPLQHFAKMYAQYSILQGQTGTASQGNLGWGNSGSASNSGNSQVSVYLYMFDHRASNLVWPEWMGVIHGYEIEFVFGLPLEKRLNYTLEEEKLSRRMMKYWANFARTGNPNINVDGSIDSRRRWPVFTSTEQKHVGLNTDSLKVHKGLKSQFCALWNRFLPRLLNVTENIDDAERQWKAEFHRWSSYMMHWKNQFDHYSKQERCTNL
# Cholinesterase = Cholinesterase (Equus caballus, UniProt P81908); test: Inhibition of equine serum BuChE using butyrylthiocholine iodide as substrate preincubated for 5 mins followed by substrate addition measured after 2 mins by Ellman's method; assay type: ADME
# Sequence of Cholinesterase (P81908 whole entry): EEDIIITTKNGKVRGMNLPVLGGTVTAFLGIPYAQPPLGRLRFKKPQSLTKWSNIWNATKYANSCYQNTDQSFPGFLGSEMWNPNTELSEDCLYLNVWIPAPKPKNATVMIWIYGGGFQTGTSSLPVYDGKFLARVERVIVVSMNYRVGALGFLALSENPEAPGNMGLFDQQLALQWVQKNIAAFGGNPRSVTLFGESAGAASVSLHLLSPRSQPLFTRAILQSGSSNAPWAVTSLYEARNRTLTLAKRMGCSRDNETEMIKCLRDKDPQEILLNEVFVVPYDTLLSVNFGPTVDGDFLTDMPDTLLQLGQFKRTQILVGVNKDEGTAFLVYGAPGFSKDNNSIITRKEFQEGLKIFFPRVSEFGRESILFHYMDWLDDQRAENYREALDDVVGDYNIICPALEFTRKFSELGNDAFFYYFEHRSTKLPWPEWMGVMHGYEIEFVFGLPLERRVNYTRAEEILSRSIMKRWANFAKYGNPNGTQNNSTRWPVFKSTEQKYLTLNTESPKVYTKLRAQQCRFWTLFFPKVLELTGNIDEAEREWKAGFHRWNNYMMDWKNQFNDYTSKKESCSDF
# [1] = Selectivity index, ratio of IC50 for equine serum BuChE to IC50 for Electric eel AChE
# [2] = molecular target: T1, Amyloid-beta precursor protein (Homo sapiens, UniProt P05067); test: Inhibition of HFIP-pretreated amyloid beta (1 to 42) (unknown origin) self-induced aggregation at 25 uM after 48 hrs by thioflavin-T fluorescence assay relative to control
# T1 sequence (P05067 whole entry): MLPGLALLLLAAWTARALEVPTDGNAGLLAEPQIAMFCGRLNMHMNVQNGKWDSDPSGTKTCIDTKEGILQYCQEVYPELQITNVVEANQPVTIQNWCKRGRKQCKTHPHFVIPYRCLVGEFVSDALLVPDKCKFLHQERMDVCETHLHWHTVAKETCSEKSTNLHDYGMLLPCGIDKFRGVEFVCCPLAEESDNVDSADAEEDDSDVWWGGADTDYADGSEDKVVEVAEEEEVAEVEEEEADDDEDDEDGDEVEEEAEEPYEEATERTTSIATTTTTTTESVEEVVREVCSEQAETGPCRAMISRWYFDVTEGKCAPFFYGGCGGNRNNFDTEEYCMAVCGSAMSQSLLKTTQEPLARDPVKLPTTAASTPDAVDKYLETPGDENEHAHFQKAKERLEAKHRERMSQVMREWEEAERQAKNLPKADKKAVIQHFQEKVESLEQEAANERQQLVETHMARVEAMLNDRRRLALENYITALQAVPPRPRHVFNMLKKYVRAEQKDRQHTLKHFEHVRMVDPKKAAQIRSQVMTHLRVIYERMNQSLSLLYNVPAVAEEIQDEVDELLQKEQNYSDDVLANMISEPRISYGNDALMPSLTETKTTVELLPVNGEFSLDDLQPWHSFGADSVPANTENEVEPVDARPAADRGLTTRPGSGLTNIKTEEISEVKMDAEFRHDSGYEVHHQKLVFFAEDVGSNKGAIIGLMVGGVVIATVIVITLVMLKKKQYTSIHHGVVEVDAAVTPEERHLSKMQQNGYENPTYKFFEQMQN
# [3] = Antioxidant activity assessed as trolox equivalent of AAPH radical scavenging activity at 1 to 25 uM preincubated for 15 mins followed by AAPH addition measured every min for 80 mins by ORAC-FL assay; assay type: functional
# [4] = molecular target: T1, Amyloid-beta precursor protein; test: Inhibition of HFIP-pretreated amyloid beta (1 to 42) (unknown origin) self-induced aggregation after 48 hrs by thioflavin-T fluorescence assay
# [5] = Cytotoxicity against human SH-SY5Y cells assessed as cell viability at 1 uM after 48 hrs by MTT assay relative to control; assay type: toxicity, cell-based; conditions: read-out: Activity
# SH-SY5Y [6] = test: Neuroprotective activity against amyloid beta (1 to 42)-induced morphological changes in human SH-SY5Y cells assessed as decrease in loss of adherence at 20 uM after 48 hrs by phase contrast microscopic method; assay type: functional, cell-based
# [7] = molecular target: Acetylcholinesterase (Electrophorus electricus) (UniProt O42275); test: Mixed-type inhibition of Electric eel AChE at 10 to 40 nM using varying levels of acetylthiocholine iodide as substrate preincubated for 15 mins followed by substrate addition by Lineweaver-Burk plot analysis
# Sequence of Acetylcholinesterase (Electrophorus electricus) (O42275 24-633 limits assumed): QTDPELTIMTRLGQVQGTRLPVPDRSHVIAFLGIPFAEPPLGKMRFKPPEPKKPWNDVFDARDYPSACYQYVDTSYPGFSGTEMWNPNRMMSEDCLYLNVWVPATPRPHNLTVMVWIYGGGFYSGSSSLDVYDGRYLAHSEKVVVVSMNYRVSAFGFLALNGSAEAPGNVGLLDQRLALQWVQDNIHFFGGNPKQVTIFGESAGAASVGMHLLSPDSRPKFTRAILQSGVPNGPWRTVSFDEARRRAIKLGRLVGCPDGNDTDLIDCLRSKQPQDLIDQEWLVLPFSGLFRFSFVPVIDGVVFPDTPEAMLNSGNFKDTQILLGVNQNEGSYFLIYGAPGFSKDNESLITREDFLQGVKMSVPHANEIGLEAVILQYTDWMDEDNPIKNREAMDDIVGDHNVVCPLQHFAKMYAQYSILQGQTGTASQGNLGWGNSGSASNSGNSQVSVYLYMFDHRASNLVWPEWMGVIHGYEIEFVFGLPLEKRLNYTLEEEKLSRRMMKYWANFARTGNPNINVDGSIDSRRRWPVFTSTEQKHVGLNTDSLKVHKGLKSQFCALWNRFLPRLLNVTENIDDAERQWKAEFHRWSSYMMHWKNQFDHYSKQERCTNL
# SH-SY5Y [8] = test: Neuroprotective activity against amyloid beta (1 to 42)-induced morphological changes in human SH-SY5Y cells assessed as decrease in fragmented or rounded floating cells at 20 uM after 48 hrs by phase contrast microscopic method; assay type: functional, cell-based
# SH-SY5Y [9] = test: Neuroprotective activity against amyloid beta (1 to 42)-induced morphological changes in human SH-SY5Y cells assessed as decrease in shrinked cell body at 20 uM after 48 hrs by phase contrast microscopic method; assay type: functional, cell-based
# [10] = Cytotoxicity against human SH-SY5Y cells assessed as cell viability at 25 uM after 48 hrs by MTT assay relative to control; assay type: toxicity, cell-based; conditions: read-out: Activity
# [11] = Cytotoxicity against human SH-SY5Y cells assessed as cell viability at 10 uM after 48 hrs by MTT assay relative to control; assay type: toxicity, cell-based; conditions: read-out: Activity
# [12] = molecular target: T1, Amyloid-beta precursor protein; test: Inhibition of amyloid beta (1 to 42) (unknown origin) fibril formation at 25 uM after 48 hrs by uranyl acetate staining based transmission electron microscopic method
# [13] = Cytotoxicity against human SH-SY5Y cells assessed as reduction in cell viability after 48 hrs by MTT assay; assay type: toxicity, cell-based
# [14] = Cytotoxicity against human SH-SY5Y cells assessed as cell viability at 100 uM after 48 hrs by MTT assay relative to control; assay type: toxicity, cell-based; conditions: read-out: Activity
# SH-SY5Y [15] = test: Neuroprotective activity against amyloid beta (1 to 42)-induced neurodegeneration in human SH-SY5Y cells assessed as increase in cell viability at 10 uM after 48 hrs by MTT assay; assay type: functional, cell-based
# SH-SY5Y [16] = test: Neuroprotective activity against H2O2-induced morphological changes in human SH-SY5Y cells assessed as decrease in cell vacuolation at 20 uM after 24 hrs by phase contrast microscopic method; assay type: functional, cell-based
# [17] = Cytotoxicity against human SH-SY5Y cells assessed as cell viability at 75 uM after 48 hrs by MTT assay relative to control; assay type: toxicity, cell-based; conditions: read-out: Activity
# SH-SY5Y [18] = test: Neuroprotective activity against H2O2-induced oxidative stress in human SH-SY5Y cells assessed as inhibition of ROS accumulation at 10 to 20 uM after 24 hrs by DCFH-DA probe based fluorescence assay; assay type: functional, cell-based
# [19] = Cytotoxicity against human SH-SY5Y cells assessed as cell viability at 50 uM after 48 hrs by MTT assay relative to control; assay type: toxicity, cell-based; conditions: read-out: Activity
# SH-SY5Y [20] = test: Neuroprotective activity against H2O2-induced morphological changes in human SH-SY5Y cells assessed as decrease in floated appearance at 20 uM after 24 hrs by phase contrast microscopic method; assay type: functional, cell-based
# SH-SY5Y [21] = test: Neuroprotective activity against amyloid beta (1 to 42)-induced morphological changes in human SH-SY5Y cells assessed as decrease in fading synapses at 20 uM after 48 hrs by phase contrast microscopic method; assay type: functional, cell-based
# SH-SY5Y [22] = test: Neuroprotective activity against H2O2-induced morphological changes in human SH-SY5Y cells assessed as decrease in cell rounding at 20 uM after 24 hrs by phase contrast microscopic method; assay type: functional, cell-based
# SH-SY5Y [23] = test: Neuroprotective activity against H2O2-induced oxidative stress in human SH-SY5Y cells assessed as increase in cell viability at 20 uM after 24 hrs by MTT assay; assay type: functional, cell-based
# [24] = Cytotoxicity against human SH-SY5Y cells assessed as cell viability at 5 uM after 48 hrs by MTT assay relative to control; assay type: toxicity, cell-based; conditions: read-out: Activity
# SH-SY5Y [25] = test: Neuroprotective activity against H2O2-induced oxidative stress in human SH-SY5Y cells assessed as increase in cell viability at 5 to 20 uM after 24 hrs by MTT assay; assay type: functional, cell-based
# [26] = molecular target: T1, Amyloid-beta precursor protein; test: Potency index, ratio of curcumin IC50 to compound IC50 for HFIP-pretreated amyloid beta (1 to 42) (unknown origin) self-induced aggregation
# SH-SY5Y [27] = test: Neuroprotective activity against amyloid beta (1 to 42)-induced neurodegeneration in human SH-SY5Y cells assessed as increase in cell viability at 20 uM after 48 hrs by MTT assay; assay type: functional, cell-based
# [28] = molecular target: T1, Amyloid-beta precursor protein; test: Potency index, ratio of compound effect to curcumin effect for inhibition of HFIP-pretreated amyloid beta (1 to 42) (unknown origin) self-induced aggregation at 25 uM
smiles,measurement,setting,value
COc1cc2c(cc1OC)C(=O)/C(=C/c1ccc(N3CCN(c4ccccn4)CC3)cc1)C2,IC50,Acetylcholinesterase,0.105 µM
same,IC50,Cholinesterase,1.74 µM
same,Ratio IC50,[1],16.5
same,inhibition,[2],73.3%
same,Activity (umolequiv/umol),[3],2.08
COc1cc2c(cc1OC)C(=O)/C(=C/c1ccc(N3CCN(C(c4ccccc4)c4ccccc4)CC3)cc1)C2,IC50,Acetylcholinesterase,0.082 µM
same,IC50,[4],12.2 µM
same,IC50,Cholinesterase,4.89 µM
same,Ratio IC50,[1],59.6
same,inhibition,[2],78.2%
same,Activity (umolequiv/umol),[3],1.41
COc1cc2c(cc1OC)C(=O)/C(=C/c1ccc(N3CCN(c4ncccn4)CC3)cc1)C2,"viability at 48 h, 1 µM",[5],98.5%
same,Activity,SH-SY5Y [6],Active
same,inhibition,[7],Active
same,Activity,SH-SY5Y [8],Active
same,IC50,Acetylcholinesterase,0.025 µM
same,Activity,SH-SY5Y [9],Active
same,"viability at 48 h, 25 µM",[10],92.8%
same,"viability at 48 h, 10 µM",[11],94.7%
same,inhibition,[12],Active
same,Activity,[13],Dose-dependent effect
same,"viability at 48 h, 100 µM",[14],82.4%
same,IC50,[4],9.9 µM
same,Activity,SH-SY5Y [15],Active
same,Activity,SH-SY5Y [16],Active
same,IC50,Cholinesterase,2.43 µM
same,"viability at 48 h, 75 µM",[17],85.7%
same,inhibition,SH-SY5Y [18],Active
same,"viability at 48 h, 50 µM",[19],89.3%
same,Activity,SH-SY5Y [20],Active
same,Activity,SH-SY5Y [21],Active
same,Activity,SH-SY5Y [22],Active
same,Activity,SH-SY5Y [23],Active
same,Ratio IC50,[1],97.3
same,"viability at 48 h, 5 µM",[24],96.1%
same,inhibition,[2],81.6%
same,Activity (umolequiv/umol),[3],2.34
COc1cc(/C=C/C(=O)CC(=O)/C=C/c2ccc(O)c(OC)c2)ccc1O,inhibition,[12],Active
COc1cc2c(cc1OC)C(=O)/C(=C/c1ccc(N3CCN(c4ccc(C)cc4C)CC3)cc1)C2,IC50,Acetylcholinesterase,0.112 µM
same,IC50,Cholinesterase,5.13 µM
same,Ratio IC50,[1],45.8
same,inhibition,[2],65.7%
same,Activity (umolequiv/umol),[3],1.35
COc1cc2c(cc1OC)C(=O)/C(=C/c1ccc(N3CCN(c4ccccc4)CC3)cc1)C2,IC50,Acetylcholinesterase,1.31 µM
same,IC50,Cholinesterase,5.98 µM
same,Ratio IC50,[1],4.5
same,inhibition,[2],51.1%
same,Activity (umolequiv/umol),[3],0.64
COc1cc2c(cc1OC)C(=O)/C(=C/c1ccc(N3CCN(C(c4ccc(F)cc4)c4ccc(F)cc4)CC3)cc1)C2,"viability at 48 h, 1 µM",[5],97.1%
same,Activity,SH-SY5Y [6],Active
same,Activity,SH-SY5Y [25],Active
same,Activity,SH-SY5Y [8],Active
same,IC50,Acetylcholinesterase,0.045 µM
same,Activity,SH-SY5Y [9],Active
same,"viability at 48 h, 25 µM",[10],92.8%
same,"viability at 48 h, 10 µM",[11],95.7%
same,inhibition,[12],Active
same,Activity,[13],Dose-dependent effect
same,Ratio IC50,[26],2.96
same,"viability at 48 h, 100 µM",[14],80.3%
same,IC50,[4],7.4 µM
same,Activity,SH-SY5Y [16],Active
same,IC50,Cholinesterase,3.01 µM
same,"viability at 48 h, 75 µM",[17],84.3%
same,Activity,SH-SY5Y [27],Active
same,inhibition,SH-SY5Y [18],Active
same,"viability at 48 h, 50 µM",[19],88.6%
same,Activity,SH-SY5Y [20],Active
same,Activity,SH-SY5Y [21],Active
same,Activity,SH-SY5Y [22],Active
same,Ratio IC50,[1],67
same,"viability at 48 h, 5 µM",[24],95.4%
same,inhibition,[2],83.7%
same,Activity (umolequiv/umol),[3],2.98
COc1cc2c(cc1OC)C(=O)/C(=C/c1ccc(N3CCN(c4ccc(Cl)cc4)CC3)cc1)C2,IC50,Acetylcholinesterase,0.291 µM
same,IC50,Cholinesterase,2.22 µM
same,Ratio IC50,[1],7.6
same,inhibition,[2],59.5%
same,Activity (umolequiv/umol),[3],1.87
COc1cc2c(cc1OC)C(=O)/C(=C/c1ccc(N3CCN(Cc4ccccc4)CC3)cc1)C2,IC50,Acetylcholinesterase,2.62 µM
same,IC50,Cholinesterase,0.088 µM
same,Ratio IC50,[1],0.03
same,inhibition,[2],48.5%
same,Activity (umolequiv/umol),[3],1.69
COc1cc2c(cc1OC)C(=O)/C(=C/c1ccc(N3CCN(c4ccc(C(F)(F)F)cc4)CC3)cc1)C2,IC50,Acetylcholinesterase,0.153 µM
same,IC50,Cholinesterase,0.214 µM
same,Ratio IC50,[1],1.4
same,inhibition,[2],64.2%
same,Activity (umolequiv/umol),[3],1.72
COc1cc2c(cc1OC)C(=O)/C(=C/c1ccc(N3CCN(Cc4ccc5c(c4)OCO5)CC3)cc1)C2,IC50,Acetylcholinesterase,1.86 µM
same,IC50,Cholinesterase,12.2 µM
same,Ratio IC50,[1],6.5
same,inhibition,[2],64.5%
same,Activity (umolequiv/umol),[3],3.35
COc1cc2c(cc1OC)C(=O)/C(=C/c1ccc(N3CCN(c4ccc(F)cc4)CC3)cc1)C2,IC50,Acetylcholinesterase,0.528 µM
same,IC50,Cholinesterase,3.24 µM
same,Ratio IC50,[1],6.1
same,inhibition,[2],66.8%
same,Activity (umolequiv/umol),[3],1.93
COc1cc2c(cc1OC)C(=O)/C(=C/c1ccc(N3CCN(c4ccc(C)cc4)CC3)cc1)C2,IC50,Acetylcholinesterase,0.194 µM
same,IC50,Cholinesterase,1.85 µM
same,Ratio IC50,[1],9.5
same,inhibition,[2],63.5%
same,Activity (umolequiv/umol),[3],1.3
COc1cc2c(cc1OC)C(=O)/C(=C/c1ccc(N3CCN(C(=O)c4ccccc4)CC3)cc1)C2,IC50,Acetylcholinesterase,1.7 µM
same,IC50,Cholinesterase,0.365 µM
same,Ratio IC50,[1],0.2
same,inhibition,[2],61.4%
same,Activity (umolequiv/umol),[3],2.31
COc1ccc(N2CCN(c3ccc(/C=C4\Cc5cc(OC)c(OC)cc5C4=O)cc3)CC2)cc1,IC50,Acetylcholinesterase,0.119 µM
same,IC50,Cholinesterase,0.603 µM
same,Ratio,[28],1.26
same,Ratio IC50,[1],5.06
same,inhibition,[2],70.5%
same,Activity (umolequiv/umol),[3],3.39
